In ChEMBL document CHEMBL2074367, “Characterization of a novel bisacridone and comparison with PSC 833 as a potent and poorly reversible modulator of P-glycoprotein” (Mol Pharmacol, 1997):

Molecular target: ATP-dependent translocase ABCB1 (Homo sapiens, UniProt P08183)
Assay: TP_TRANSPORTER: increase in Vinblastine intracellular accumulation (Vinblastine: 0.0375 uM, PBA: 1 uM) in KB8-5 cells
Type: functional, cell-based
Settings: kb8-5, 1 µM

Chain of ATP-dependent translocase ABCB1 (P08183 whole entry): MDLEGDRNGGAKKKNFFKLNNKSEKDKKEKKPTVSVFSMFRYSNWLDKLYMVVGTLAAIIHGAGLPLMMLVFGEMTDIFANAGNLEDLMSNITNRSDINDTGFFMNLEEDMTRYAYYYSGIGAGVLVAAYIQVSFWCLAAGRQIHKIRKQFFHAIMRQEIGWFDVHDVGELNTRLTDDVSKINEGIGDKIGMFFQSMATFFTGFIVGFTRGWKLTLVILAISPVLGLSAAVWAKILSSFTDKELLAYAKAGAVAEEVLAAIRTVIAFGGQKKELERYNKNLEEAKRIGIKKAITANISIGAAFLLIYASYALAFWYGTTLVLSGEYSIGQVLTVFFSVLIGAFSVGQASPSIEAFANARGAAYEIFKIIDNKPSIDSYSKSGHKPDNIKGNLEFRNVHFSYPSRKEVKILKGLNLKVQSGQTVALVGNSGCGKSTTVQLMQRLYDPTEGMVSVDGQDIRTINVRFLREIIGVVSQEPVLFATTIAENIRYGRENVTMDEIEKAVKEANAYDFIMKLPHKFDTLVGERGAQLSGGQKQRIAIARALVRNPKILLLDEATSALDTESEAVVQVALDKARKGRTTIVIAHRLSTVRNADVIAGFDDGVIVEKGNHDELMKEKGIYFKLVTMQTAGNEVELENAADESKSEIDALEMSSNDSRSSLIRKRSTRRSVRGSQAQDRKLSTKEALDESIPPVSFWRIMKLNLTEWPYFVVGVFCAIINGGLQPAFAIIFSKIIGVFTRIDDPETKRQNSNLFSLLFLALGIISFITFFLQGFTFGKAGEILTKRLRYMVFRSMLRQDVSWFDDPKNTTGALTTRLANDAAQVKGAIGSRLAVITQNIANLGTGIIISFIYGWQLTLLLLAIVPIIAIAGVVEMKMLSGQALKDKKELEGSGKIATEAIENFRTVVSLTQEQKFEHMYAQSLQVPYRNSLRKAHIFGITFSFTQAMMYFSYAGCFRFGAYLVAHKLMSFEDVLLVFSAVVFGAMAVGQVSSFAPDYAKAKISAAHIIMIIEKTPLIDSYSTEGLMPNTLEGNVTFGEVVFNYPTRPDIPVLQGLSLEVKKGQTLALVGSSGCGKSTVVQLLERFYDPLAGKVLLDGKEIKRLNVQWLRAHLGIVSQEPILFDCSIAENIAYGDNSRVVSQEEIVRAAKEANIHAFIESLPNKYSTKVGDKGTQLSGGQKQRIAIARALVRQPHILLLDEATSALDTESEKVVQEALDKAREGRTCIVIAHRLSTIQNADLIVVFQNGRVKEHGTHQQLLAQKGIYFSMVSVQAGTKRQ

Inhibition: inhibitor [800-900 % inhibition]
Structure (SMILES): O=c1c2ccccc2n(CCCn2c3ccccc3c(=O)c3ccccc32)c2ccccc12
